We go through one compound from US20050013862A1, “Functional powders for oral delivery” (Vectura Limited, priority 2001, published 2005).

This data set can be described thus: Twin Stage Impinger fine particle fraction. The class given is physicochemical. The settings on record: glass, 12.8 mm jet. The text has this: A Twin Stage Impinger Apparatus (glass with a 12.8 mm jet) was used to determine the fine particle fraction of the formulations of Examples 10, 11 (steps 1 & 2), 11 (step 1 only), 14, and 15, with the following results: […]

On to `COc1ccc2c(c1)c(CC(=O)O)c(C)n2C(=O)c1ccc(Cl)cc1` [Raw indomethacin (pulverized), indomethacin], for which the “Average % Fine Particle Fraction at 601/min (n = 5)” value was determined as 3.89%.
